The target of data set [1] is T1, Solute carrier organic anion transporter family member 1A1 (Rattus norvegicus, UniProt P46720).
T1 sequence (P46720 whole entry): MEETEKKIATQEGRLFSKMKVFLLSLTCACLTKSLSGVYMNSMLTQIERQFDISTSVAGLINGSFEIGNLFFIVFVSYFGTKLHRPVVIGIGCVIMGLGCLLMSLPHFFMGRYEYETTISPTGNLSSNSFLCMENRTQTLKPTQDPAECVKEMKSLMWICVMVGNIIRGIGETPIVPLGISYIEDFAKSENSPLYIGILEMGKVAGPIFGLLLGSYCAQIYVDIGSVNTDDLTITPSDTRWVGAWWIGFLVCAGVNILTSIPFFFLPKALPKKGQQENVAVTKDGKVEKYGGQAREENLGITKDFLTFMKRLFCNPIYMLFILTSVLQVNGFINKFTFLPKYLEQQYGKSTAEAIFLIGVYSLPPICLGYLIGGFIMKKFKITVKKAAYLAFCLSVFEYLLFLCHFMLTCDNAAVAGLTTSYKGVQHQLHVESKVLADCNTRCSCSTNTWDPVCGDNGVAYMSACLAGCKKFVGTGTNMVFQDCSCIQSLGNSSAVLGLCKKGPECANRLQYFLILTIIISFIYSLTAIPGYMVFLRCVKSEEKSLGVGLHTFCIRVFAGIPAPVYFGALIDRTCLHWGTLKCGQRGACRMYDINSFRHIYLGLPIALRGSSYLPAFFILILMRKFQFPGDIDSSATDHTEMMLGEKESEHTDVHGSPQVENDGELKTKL
The data set can be described thus: (§1) TP_TRANSPORTER: uptake in Xenopus laevis oocytes. The class given is functional, cell-based. The note with it: oocyte.

For data set [2], the target named is T2, Hepatic sodium/bile acid cotransporter (Rattus norvegicus, UniProt P26435).
T2 sequence (P26435 whole entry): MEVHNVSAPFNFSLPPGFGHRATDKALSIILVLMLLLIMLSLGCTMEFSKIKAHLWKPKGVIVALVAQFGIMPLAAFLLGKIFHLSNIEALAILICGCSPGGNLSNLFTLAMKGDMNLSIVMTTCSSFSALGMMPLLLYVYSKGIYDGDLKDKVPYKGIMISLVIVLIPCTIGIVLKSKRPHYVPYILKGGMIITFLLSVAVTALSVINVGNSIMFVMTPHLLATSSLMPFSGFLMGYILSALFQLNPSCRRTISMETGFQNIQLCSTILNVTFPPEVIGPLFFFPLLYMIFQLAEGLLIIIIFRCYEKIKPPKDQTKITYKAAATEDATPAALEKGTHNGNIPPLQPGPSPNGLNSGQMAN
The data set is described as §1. The class given is functional, cell-based. The note with it: oocyte.

In ChEMBL document CHEMBL2074407, “Identification of thyroid hormone transporters” (Biochem Biophys Res Commun, 1999) one finds Activity data, which are given here for ten compounds.

Structures can show the parent of a compound that is named as a salt.

For `NC(Cc1ccc(Oc2ccc(OS(=O)(=O)O)c(I)c2)c(I)c1)C(=O)O` (stereo not drawn) [DIIODOTHYRONINE SULFATE], the Activity result in data set [1] and in data set [2] was “substrate [+]” each time.
As for `NC(Cc1ccc(Oc2ccc(O)c(I)c2)c(I)c1)C(=O)O` (stereo not drawn) [DIIODOTHYRONINE], the Activity entry in data set [1] and in data set [2] was “substrate [+]” throughout.
For the compound `N[C@@H](Cc1cc(I)c(Oc2cc(I)c(O)c(I)c2)c(I)c1)C(=O)O` [LEVOTHYROXINE], the Activity entry in data set [1] and in data set [2] was “substrate [+]” throughout.
For `N[C@@H](Cc1cc(I)c(Oc2ccc(O)c(I)c2)c(I)c1)C(=O)O` [LIOTHYRONINE], the Activity entry in data set [1] and in data set [2] was “substrate [+]” throughout.
With `N[C@@H](Cc1ccc(Oc2cc(I)c(O)c(I)c2)c(I)c1)C(=O)O.O=S(=O)(O)O` [REVERSE TRIIODOTHYRONINE(RT3) SULFATE], the Activity result in data set [1] and in data set [2] was “substrate [+]” throughout.
For `N[C@@H](Cc1ccc(Oc2cc(I)c(O)c(I)c2)c(I)c1)C(=O)O` [REVERSE TRIIODOTHYRONINE], the Activity entry in data set [1] and in data set [2] was “substrate [+]” each time.
For `NS(=O)(=O)O.N[C@@H](Cc1cc(I)c(Oc2cc(I)c(O)c(I)c2)c(I)c1)C(=O)O` [THYROXINE SULFAMATE], the Activity result in data set [1] was “substrate [+]”.
As to `NC(Cc1cc(I)c(Oc2cc(I)c(OS(=O)(=O)O)c(I)c2)c(I)c1)C(=O)O` (stereo not drawn) [THYROXINE SULFATE], the Activity result in data set [1] and in data set [2] was “substrate [+]” throughout.
Consider `NS(=O)(=O)O.N[C@@H](Cc1cc(I)c(Oc2ccc(O)c(I)c2)c(I)c1)C(=O)O` [TRIIODOTHYRONINE SULFAMATE], for which the Activity result in data set [1] was “substrate [+]”.
For `N[C@@H](Cc1cc(I)c(Oc2ccc(OS(=O)(=O)O)c(I)c2)c(I)c1)C(=O)O` [TRIIODOTHYRONINE SULFATE], the Activity result in data set [1] and in data set [2] was “substrate [+]” in each case.
